Measurements from patent US9370589B2, “Switching fluorescent nanoparticle probe and fluorescent particle imaging method using same” (SHIMADZU CORPORATION, priority 2010, dated 2016).

Key:
[1] = Fluorescence intensity before and after change in external environment (addition of plasma); details: for Fluorescence maximum: lactosome (PSar-PLLA) containing 20 mol % of dye (IC7-2: 15 mol %), addition of plasma, polymer 1/15 mg/mL; for Fluorescence intensity (A) / Fluorescence intensity (PBS)(B) / Ratio of fluorescence intensity (A/B): lactosome containing 20 mol % of dye (IC7-2: 15 mol %); for Fluorescence intensity (A): after addition of plasma; for Fluorescence intensity (PBS)(B): in PBS, at the plasma fluorescence maximum wavelength; for Ratio of fluorescence intensity (A/B): plasma versus PBS
Experimental: Requirements for recovery of fluorescence intensity under in vivo conditions were studied. A water dispersion of the lactosome encapsulating 20 mol % of IC7-1 in a carrier agent PSar-PLLA (1 mg/mL) and phosphate buffered saline (PBS), plasma (collected from a male ddY), 5 wt % albumin (BSA), or 5 wt % SDS were mixed 1:1 (volume ratio), respectively, and the mixture was allowed to stand at room temperature for 30 minutes under lightproof conditions, and then diluted with PBS so that the concentration of the amphiphilic polymer was 1/15 mg/mL to measure a fluorescence spectrum (FIG. 3(a)).

[2] = target: albumin (BSA) (Bos taurus, UniProt P02769); experiment: Fluorescence intensity before and after change in external environment (addition of 5 wt % BSA); details: lactosome containing 20 mol % of dye (IC7-2: 15 mol %); for Ratio of fluorescence intensity (A/B): 5 wt % BSA versus PBS; for Fluorescence maximum: addition of 5 wt % BSA, polymer 1/15 mg/mL; for Fluorescence intensity (A): after addition of 5 wt % BSA; for Fluorescence intensity (PBS)(B): in PBS, at the BSA fluorescence maximum wavelength
Source text: (§1) Requirements for recovery of fluorescence intensity under in vivo conditions were studied.
(§2) It is to be noted that specific composition of the phosphate buffered saline (PBS) is as follows: 29 g of Na2HPO4.12H2O, 2.96 g of NaH2PO4.2H2O, and 8.7 g of NaCl per 1 liter of ultrapure water.

[3] = Dependence of fluorescence intensity of fluorescent dye-encapsulating lactosome on fluorescent dye content; assay type: physicochemical; details: for intensity of fluorescence by adding SDS, BSA, or plasma: lactosome with varied dye content; for fluorescent dye content at which the intensity of fluorescence in PBS was maximized: polymer 1/15 mg/mL
Experimental: Lactosomes encapsulating, as a fluorescent dye, IC7-1, IC7-2, IR820, IR783, or IR806 were prepared by changing the fluorescent dye content (1 mg/mL), and were then mixed with PBS, 5 wt % SDS, 5 wt % BSA, or plasma 1:1 (volume ratio), and the mixture was allowed to stand at room temperature for 30 minutes under lightproof conditions, and then diluted with PBS so that the concentration of the amphiphilic polymer was 1/15 mg/mL to measure the intensity of fluorescence using Fluorolog-3 (HORIBA Jobin Yvon Inc.) (FIG. 6).

[4] = Absorption and fluorescence spectra of fluorescent dye-encapsulating lactosomes in ultrapure water; assay type: physicochemical; details: polymer 1 mg/mL; for absorption maximum / Fluorescence maximum: lactosome encapsulating 1 mol % of dye
Experimental: Among the lactosomes encapsulating the fluorescent dye IC7-1 (IC7-1/Lactosomes) obtained in Example 1-1, the freeze-dried products of the lactosomes each encapsulating 1 mol %, 5 mol %, 10 mol % and 20 mol % of the fluorescent dye were subjected to measurement of absorption spectra and fluorescence spectra in the following manner.
The measurement of absorption spectra was performed to confirm that each of these lactosomes encapsulated the fluorescent dye according to their respective fluorescent dye blend ratios. Further, the measurement of fluorescence intensity of the fluorescent dye-encapsulating lactosomes was performed. The measurement of absorption spectra was performed using an ultraviolet-visible spectrophotometer (UVmini-1240, manufactured by SHIMADZU CORPORATION). The measurement of fluorescence spectra was performed at an excitation wavelength of 785 nm in the range of 700 to 900 nm using a fluorescence spectrophotometer (RF-5300PC, manufactured by SHIMADZU CORPORATION).
Each of the fluorescent dye-encapsulating lactosomes was dispersed in ultrapure water so that the concentration of the amphiphilic polymer was 1 mg/mL to measure absorption and fluorescence spectra (FIG. 1). The lactosome encapsulating 1 mol % of IC7-1 had adsorption maximum at 831 nm and fluorescence maximum at 836 nm. Although the intensity of absorbance increased as the fluorescent dye content increased, the intensity of fluorescence was highest when the fluorescent dye content was 1 mol %, and was reduced to about 1/120 when the fluorescent dye content was 20 mol % as compared to when the fluorescent dye content was 1 mol % (FIGS. 1(a) and 1(b)). The lactosome encapsulating 1 mol % of IC7-2 had absorption maximum at 831 nm and fluorescence maximum at 833 nm. […] Also when IC7-2 was contained, quenching of fluorescence was observed. The intensity of fluorescence was reduced to about ⅛ when the IC7-2 content was 20 mol % as compared to when the IC7-2 content was 1 mol % (FIGS. 1(c) and 1(d)).
Among the lactosomes encapsulating the fluorescent dye IC7-1 (IC7-1/Lactosomes) obtained in Example 1-1, the lactosomes each encapsulating 0.5 mol % (for comparison), 1 mol %, 2 mol %, 4 mol %, 8 mol %. 12 mol %, 16 mol %, or 20 mol % of the fluorescent dye IC7-1 (IC7-1/Lactosomes) were dispersed in ultrapure water so that the concentration of the amphiphilic polymer was 1 mg/mL to measure the maximum value of fluorescence at an excitation wavelength of 785 nm (FIG. 2(a)).

[5] = Fluorescence intensity before and after change in external environment (addition of 5 wt % SDS); details: lactosome containing 20 mol % of dye (IC7-2: 15 mol %); for Ratio of fluorescence intensity (A/B): 5 wt % SDS versus PBS; for Fluorescence maximum: addition of 5 wt % SDS, polymer 1/15 mg/mL; for Fluorescence intensity (A): after addition of 5 wt % SDS; for Fluorescence intensity (PBS)(B): in PBS, at the SDS fluorescence maximum wavelength
Source text: as §1, §2

Chain of albumin (BSA) (P02769 25-607): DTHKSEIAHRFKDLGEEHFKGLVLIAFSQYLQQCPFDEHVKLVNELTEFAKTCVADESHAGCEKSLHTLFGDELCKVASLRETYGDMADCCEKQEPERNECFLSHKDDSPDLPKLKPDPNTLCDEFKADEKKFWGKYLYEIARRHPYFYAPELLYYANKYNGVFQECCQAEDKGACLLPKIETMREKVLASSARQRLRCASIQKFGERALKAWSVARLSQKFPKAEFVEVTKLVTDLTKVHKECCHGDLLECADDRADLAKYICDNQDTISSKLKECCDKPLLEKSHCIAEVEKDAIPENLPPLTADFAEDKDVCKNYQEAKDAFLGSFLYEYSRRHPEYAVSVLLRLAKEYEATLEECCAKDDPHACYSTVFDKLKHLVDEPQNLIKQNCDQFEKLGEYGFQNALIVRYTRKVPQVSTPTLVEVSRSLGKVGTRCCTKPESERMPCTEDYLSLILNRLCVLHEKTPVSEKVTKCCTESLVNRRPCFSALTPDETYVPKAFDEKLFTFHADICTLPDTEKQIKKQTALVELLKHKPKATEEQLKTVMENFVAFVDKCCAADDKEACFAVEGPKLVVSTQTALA

| Fluorescence maximum [1] [nm] | Ratio of fluorescence intensity (A/B) [2] | Fluorescence maximum [2] [nm] | Fluorescence intensity (A) [2] | Fluorescence intensity (PBS)(B) [2] | absorption maximum [4] [nm] | Fluorescence maximum ([4]; excitation 785 nm) [nm] | Fluorescence maximum [5] [nm] | Structure (SMILES) | Fluorescence intensity (A) [1] | Fluorescence intensity (PBS)(B) [1] | Ratio of fluorescence intensity (A/B) [1] | intensity of fluorescence by adding SDS, BSA, or plasma [3] | fluorescent dye content at which the intensity of fluorescence in PBS was maximized ([3]; lactosome) [mol %] | intensity of fluorescence at 20 mol % dye content as compared to 1 mol % (reduced to) ([4]; lactosome) | Ratio of fluorescence intensity (A/B) [5] | Fluorescence intensity (A) [5] | Fluorescence intensity (PBS)(B) [5] | increase of encapsulated fluorescent dye amount by which fluorescence intensity per certain amount of dye is reduced to ½ ([3]; lactosome, amphiphilic polymer concentration 1/15 mg/mL) [mol %] | fluorescent dye content at which the intensity of fluorescence was highest ([4]; lactosome, excitation 785 nm) [mol %] | increase of fluorescent dye content by which fluorescence intensity per 1 μM dye is reduced to ½ ([4]; lactosome, until content reached 8 mol %) [mol %] |
| --- | --- | --- | --- | --- | --- | --- | --- | --- | --- | --- | --- | --- | --- | --- | --- | --- | --- | --- | --- | --- |
| 901 | 13.1 | 903 | 185345 | 14147 | 831 | 833 | 916 | CC1(C)C(/C=C/C2=C(Cl)C(=C/C=C3/C=CN(CCO)c4ccccc43)/CCC2)=[N+](CCCCCC(=O)O)c2ccc3ccccc3c21.[I-] [IC7-2] | 241880 | 14224 | 17.0 | increased with dependence on fluorescent dye content | 2.5 | about ⅛ | 7.9 | 124942 | 15816 | – | – | – |
| 824 | 33.4 | 802 | 148650 | 4454 | – | – | 821 | CC1(C)C(/C=C/C=C/C=C/C=C2\N(CCCCS(=O)(=O)O)c3ccc4ccccc4c3C2(C)C)=[N+](CCCCS(=O)(=O)[O-])c2ccc3ccccc3c21 [ICG, indocyanine green] | 342590 | 5212 | 65.7 | – | – | – | 71.9 | 382900 | 5327 | – | – | – |
| 601 | 1.1 | 600 | 171710 | 163500 | – | – | 598 | O=C(O)c1ccccc1C1=c2cc3c4c(c2Oc2c1cc1c5c2CCCN5CCC1)CCC[N+]=4CCC3 [Rhodamine 101] | 154280 | 163410 | 0.9 | – | – | – | 1.5 | 249130 | 162110 | – | – | – |
| 699 | 1.7 | 699 | 139250 | 82260 | – | – | 702 | N#CC1=c2cc3c4c(c2Oc2c1cc1c5c2CCCN5CCC1)CCC[N+]=4CCC3 [Rhodamine 800] | 138170 | 82260 | 1.7 | – | – | – | 1.9 | 152580 | 80647 | – | – | – |
| 844 | 156.3 | 837 | 92384 | 591 | 831 | 836 | 852 | CC1(C)C(/C=C/C2=C(Cl)C(=C/C=C3\N(CCCCCC(=O)O)c4ccc5ccccc5c4C3(C)C)/CCC2)=[N+](CCO)c2ccc3ccccc3c21.[I-] [IC7-1] | 199746 | 696 | 287.0 | increased with dependence on fluorescent dye content | 1 | about 1/120 | 204.5 | 141929 | 694 | 1.12 | 1 | 0.78 |
